Experimental data from patent publication US20090142330A1, “Use of inactive-plasmin to treat chronic inflammatory disease and tumors” (The Government of the United States of America as …, priority 2007, published 2009).
Each block holds one molecule with its values, some of them ahead of it.

Experiments:
[1] = tested on: MMP-1 production by monocytes; assay: MMP-1 protein in monocyte conditioned media, Western blot; assay type: cell-based, human; conditions: for effect on LPS-induced MMP-1 production / effect on HMW-uPA enhancement of MMP-1 / effect on plasmin enhancement of MMP-1: monocytes preincubated 30 min with agent; for effect on LPS-induced MMP-1 production: then LPS; for effect on HMW-uPA enhancement of MMP-1: then LPS plus HMW-uPA; for effect on plasmin enhancement of MMP-1: then LPS plus plasmin
Text: Reagents. High molecular weight urokinase plasminogen activator (HMW-uPA), low molecular weight uPA (LMW-uPA), amino-terminal fragment-uPA (ATF-uPA) and α2-antiplasmin were obtained from American Diagnostica Inc. (Stamford, Conn.). […] LPS Escherichia coli 05:B55 was purchased from Sigma-Aldrich (St. Louis, Mo.). ERK1/2/phospho-ERK1/2 and p38/phospho-p38 antibodies were from Cell Signaling Technology (Beverly, Mass.). MMP-1 antibodies used were rabbit polyclonal antibodies against MMP-1 (provided by Dr. Henning Birkedal-Hansen, NIDCR/NIH) and a mouse anti-human MMP-1 monoclonal antibody (Chemicon International, Inc., Temecula, Calif.). Rabbit anti-COX-2 antibodies were obtained from Cayman Chemical Company (Ann Arbor, Mich.) and mouse anti-β-actin antibodies were from Chemicon International, Inc., Temecula, Calif.). Purification and culture of human monocytes. Human peripheral blood cells were obtained by leukapheresis of non-disease subjects. The monocyte fraction was purified by counter-flow centrifugal elutriation as previously described (Wahl et al., Cell Immunol. 85: 373-383, 1984; and Wahl et al., “In Current Protocols in Immunology,” eds. John Wiley & Sons, Inc. NY. Vol. 2: 7.6A.1-7.6A.10., 2005) and contained greater than 90% monocytes as determined by morphology and flow cytometry. Monocytes were cultured in serum-free Dulbecco Modified Eagle's Medium (DMEM; Cambrex, Walkersville, Md.) supplemented with 2 mM L-glutamine (Mediatech, Herndon, Va.) and 10 μg/ml gentamycin (Cambrex, Walkersville, Md.). Western blot analysis of MMP-1, MAPKs and COX-2. For MMP-1 determination, purified monocytes were cultured at a density of 5×10^6/ml of DMEM in 12 well polystyrene plates (Corning Incorporated Life Sciences, Lowell, Mass.). After 36 to 48 hours of treatment with reagents, the conditioned media were centrifuged and collected. Bovine serum albumin (BSA; 40 μg/ml) was added to the culture supernatants prior to the precipitation of the proteins with cold ethanol (final concentration, 60%) for at least 15 min at −70° C. The proteins were pelleted by microcentrifuging at 20,800×g for 12 min, washed with ethanol, and lyophilized by rotary evaporation. The lyophilized proteins were resuspended in sodium dodecyl sulfate (SDS)-Laemmli buffer [500 mM Tris-HCl (pH 6.8)/10% SDS/0.01% bromophenol-blue/20% glycerol], reduced with 5% β-mercaptoethanol, heated for 4 min at 100° C., and electrophoresed on a 10 or 12% Tris-glycine gel in SDS running buffer [25 mM Tris-HCl (pH 8.3)/192 mM glycine/[…]]. The proteins were transferred onto 0.45 μm nitrocellulose in a buffer containing 25 mM Tris-HCl (pH 8.3)/192 mM glycine/20% methanol and blocked with 50 mM Tris-HCl (pH 7.5)/150 mM NaCl (TBS) containing 5% nonfat dry milk for at least 1 hour. The blots were then incubated overnight with antibodies against MMP-1.
Western blots for MMP-1, MAPKs and COX-2 were incubated overnight with primary antibodies, washed and analyzed by the addition of Alexa Fluor 680 goat anti-rabbit or Alexa Fluor 750 goat anti-mouse antibodies (Molecular Probes® Inc., Eugene, Oreg.) and the infrared fluorescence detected with the Odyssey infrared imaging system (LI-COR, Lincoln, Nebr.). Densitometry analysis of the bands on the Western blots was determined with the LI-COR software analysis program or the ImageQuant software analysis program (Amersham Biosciences, Piscataway, N.J.).

plasmin = target: T1, plasmin (Homo sapiens, UniProt P00747); assay: Cell free plasmin activity assay (SPECTROZYME PL); assay type: biochemical; conditions: compared with plasmin alone, FIG. 6B
T1 construct: purchased Sigma-Aldrich
Experimental: (§1) Plasmin activity assay. Plasmin activity was determined with the SPECTROZYME PL kit (American Diagnostica Inc., Stamford, Conn.) which utilizes the chromogenic substrate H-D-norleucyl-hexahydrotyrosol-lysine-para-nitroanilide diacetate. For detection of cell-associated plasmin activity, monocytes were cultured at 1×10^6/well in Hanks Balanced Solution containing calcium and magnesium (Hyclone, Logan, Utah) with the plasmin substrate. Kinetic absorbance readings were measured at 405 nm. RT-PCR. Total cellular RNA was extracted with the RNeasy Mini Kit (QIAGEN® Inc., Valencia, Calif.) 8 hours after stimulation of monocytes with LPS. Transcript levels of MMP-1 were determined using semiquantitative reverse transcriptase-polymerase chain reaction (RT-PCR) with GADPH as an internal control. […] The amplified DNA was separated by 1.7% agarose gel electrophoresis, stained with SYTO 60 red fluorescent nucleic acid stain (Molecular Probes®, Eugene, Oreg.), and the intensity of the stained bands was analyzed with an infrared imaging system. […] FITC-conjugated BSA, plasmin (2.5 μg in 10 μl) or anti-human antibodies (1-2.5 μg/10 μl) then were added, respectively, incubated for 30 min and washed and analyzed by the FACSCalibur system (Becton Dickinson Biosciences, Franklin Lakes, N.J.). […] Flow cytometry results were analyzed by CELLQuest software (Becton Dickinson Biosciences, Franklin Lakes, N.J.). […]

[2] = target: T2, annexin A2 heterotetramer (annexin A2 p36 / S100A10 p11) on monocytes (Homo sapiens, UniProt P07355+P60903); assay: Binding of FITC-labeled plasmin to monocytes, flow cytometry; conditions: preincubation of monocytes 30 min with agent before plasmin-FITC
T2 construct: Purified human monocytes were fixed and permeablized; endogenous in cells; host or cells: purified human peripheral blood monocytes, fixed and permeabilized
Experimental: as §1

annexin A2 on monocytes = target: T3, annexin A2 on monocytes (Homo sapiens, UniProt P07355); assay: Binding of goat anti-human annexin A2 antibodies to monocytes, flow cytometry; conditions: pre-treated with agent 30 minutes; FIG. 6D
T3 construct: Purified human monocytes were fixed and permeablized; endogenous in cells; host or cells: purified human peripheral blood monocytes, fixed and permeabilized
Experimental: as §1

T2 sequence (P07355 2-339 limits assumed): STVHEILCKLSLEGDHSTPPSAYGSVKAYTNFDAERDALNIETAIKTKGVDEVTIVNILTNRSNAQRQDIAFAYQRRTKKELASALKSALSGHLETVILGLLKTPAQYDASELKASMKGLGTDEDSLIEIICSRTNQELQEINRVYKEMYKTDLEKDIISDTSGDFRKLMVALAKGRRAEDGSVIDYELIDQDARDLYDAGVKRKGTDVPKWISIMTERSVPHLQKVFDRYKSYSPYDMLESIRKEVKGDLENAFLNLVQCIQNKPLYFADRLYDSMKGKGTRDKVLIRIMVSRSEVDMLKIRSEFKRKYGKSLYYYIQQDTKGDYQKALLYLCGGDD
T2 sequence (P60903 2-97 limits assumed): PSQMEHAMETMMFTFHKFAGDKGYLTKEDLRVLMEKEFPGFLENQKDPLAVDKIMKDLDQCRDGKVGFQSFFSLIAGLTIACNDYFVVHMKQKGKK
T3 sequence (P07355 whole entry): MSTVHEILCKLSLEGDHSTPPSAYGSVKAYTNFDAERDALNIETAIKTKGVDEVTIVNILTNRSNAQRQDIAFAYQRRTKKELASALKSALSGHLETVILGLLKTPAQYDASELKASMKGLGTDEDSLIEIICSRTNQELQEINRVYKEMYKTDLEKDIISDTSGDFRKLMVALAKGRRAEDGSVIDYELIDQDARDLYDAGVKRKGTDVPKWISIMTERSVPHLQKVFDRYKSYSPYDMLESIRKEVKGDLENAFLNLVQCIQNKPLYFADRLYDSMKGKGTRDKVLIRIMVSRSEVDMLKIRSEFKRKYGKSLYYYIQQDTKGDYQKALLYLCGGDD

Molecule: COc1ccc2c(c1)c(CC(=O)O)c(C)n2C(=O)c1ccc(Cl)cc1 [indomethacin]
effect on LPS-induced MMP-1 production [1]: inhibited | effect on HMW-uPA enhancement of MMP-1 [1]: inhibited | effect on plasmin enhancement of MMP-1 [1]: inhibited

Molecule: C[S+]([O-])c1ccc(-c2nc(-c3ccncc3)c(-c3ccc(F)cc3)[nH]2)cc1 (stereo not shown) [SB203580]
effect on HMW-uPA enhancement of MMP-1 [1]: suppressed the enhancement | effect on plasmin enhancement of MMP-1 [1]: suppressed the enhancement

Molecule: CCCCC[C@H](O)/C=C/[C@H]1[C@H](O)CC(=O)[C@@H]1C/C=C\CCCC(=O)O [PGE2, prostaglandin-E2]
restoration of MMP-1 after indomethacin inhibition ([1]; PGE2 1 μM added to indomethacin-treated monocytes, FIG. 4C): restored, in part

Molecule: COc1cccc(-c2cc(=O)c3ccccc3o2)c1N [PD98059]
effect on HMW-uPA enhancement of MMP-1 [1]: suppressed the enhancement | effect on plasmin enhancement of MMP-1 [1]: suppressed the enhancement

plasmin activity of inactive plasmin combined with plasmin (plasmin): same activity as plasmin alone | binding of FITC-labeled plasmin to monocytes [2]: blocked the binding | binding of antibodies against annexin A2 to monocytes (annexin A2 on monocytes): blocked the binding
B1: inactive plasmin: plasmin in which the catalytic site had been irreversibly blocked with a peptide inhibitor; from Molecular Innovations, Inc. (protein)
chain: KVYLSECKTGNGKNYRGTMSKTKNGITCQKWSSTSPHRPRFSPATHPSEGLEENYCRNPDNDPQGPWCYTTDPEKRYDYCDILECEEECMHCSGENYDGKISKTMSGLECQAWDSQSPHAHGYIPSKFPNKNLKKNYCRNPDRELRPWCFTTDPNKRWELCDIPRCTTPPPSSGPTYQCLKGTGENYRGNVAVTVSGHTCQHWSAQTPHTHNRTPENFPCKNLDENYCRNPDGKRAPWCHTTNSQVRWEYCKIPSCDSSPVSTEQLAPTAPPELTPVVQDCYHGDGQSYRGTSSTTTTGKKCQSWSSMTPHRHQKTPENYPNAGLTMNYCRNPDADKGPWCFTTDPSVRWEYCNLKKCSGTEASVVAPPPVVLLPDVETPSEEDCMFGNGKGYRGKRATTVTGTPCQDWAAQEPHRHSIFTPETNPRAGLEKNYCRNPDGDVGGPWCYTTNPRKLYDYCDVPQCAAPSFDCGKPQVEPKKCPGRVVGGCVAHPHSWPWQVSLRTRFGMHFCGGTLISPEWVLTAAHCLEKSPRPSSYKVILGAHQEVNLEPHVQEIEVSRLFLEPTRKDIALLKLSSPAVITDKVIPACLPSPNYVVADRTECFITGWGETQGTFGAGLLKEAQLPVIENKVCNRYEFLNGRVQSTELCAGHLAGGTDSCQGDSGGPLVCFEKDKYILQGVTSWGLGCARPNKPGVYVRVSRFVTWIEGVMRNN
effect on LPS-induced MMP-1 production [1]: inhibited the production of MMP-1 | effect on plasmin enhancement of MMP-1 [1]: inhibited the production of MMP-1
